A short description of data set [1]: Log D partition coefficient, CHI method. In kind it is physicochemical. Here is the method: The Log D partition coefficient was measured using the CHI method.
The nature of data set [2]: Thermodynamic water solubility. In kind it is physicochemical.
The test system of data set [3] is Septoria tritici (SEPTTR). Put plainly: Evaluation of fungicidal activity: leaf blotch of wheat, disease control on wheat seedlings. Format: in vivo. The settings on record: for 3DC % control / 3DP % Control: wheat (variety Yuma) seedlings; for fungicidal activity against the fungi responsible for leaf blotch of wheat (Septoria tritici): in comparison with example 5 of U.S. Pat. No. 8,748,461. The protocol: Example 3: Evaluation of Fungicidal Activity: Leaf Blotch of Wheat (Mycosphaerella graminicola; Anamorph: Septoria tritici; Bayer code […]) Technical grades of materials were dissolved in acetone, which were then mixed with nine volumes of water containing 110 ppm Triton X-100. The fungicide solutions were applied onto wheat seedlings using an automated booth sprayer to run-off. All sprayed plants were allowed to air dry prior to further handling. Wheat plants (variety Yuma) were grown from seed in a greenhouse in 50% mineral soil/50% soil-less Metro mix until the first leaf was fully emerged, with 7-10 seedlings per pot. These plants were inoculated with an aqueous spore suspension of Septoria tritici either prior to or after fungicide treatments. After inoculation the plants were kept in 100% relative humidity (one day in a dark dew chamber followed by two to three days in a lighted dew chamber at 20° C.) to permit spores to germinate and infect the leaf. The plants were then transferred to a greenhouse set at 20° C. for disease to develop. When disease symptoms were fully expressed on the 1st leaves of untreated plants, infection levels were assessed on a scale of 0 to 100 percent disease severity. Percent disease control was calculated using the ratio of disease severity on treated plants relative to untreated plants.

Four molecules from patent US11051514B2, “Antifungal compounds” (Mycovia Pharmaceuticals, Inc., priority 2015, dated 2021) can be followed below.

One may read the chromatographic logD as lipophilicity estimated from chromatographic retention. A higher chromatographic logD goes with higher lipophilicity.

In data set [1], `N#Cc1ccc(Oc2ccc(C(F)(F)C(O)(Cn3cncn3)c3ccc(F)cc3F)nc2)cc1` (stereo not drawn) [Example 1, 4-((6-(2-(2,4-difluorophenyl)-1,1-difluoro-2-hydroxy-3-(1H-1,2,4-triazol-1-yl)propyl)pyridin-3-yl)oxy)benzonitrile] came in with a chromatographic logD of 2.9. For the same molecule, in data set [2], the “H2O solubility (ppm) (thermodynamic)” value came to 37.33 ppm. Moreover, the 3DC % control in data set [3] (6.25 g/ha) is 100%; in data set [3] (25 g/ha) it was 100%; in data set [3] (100 g/ha), 100%; in data set [3] (rate g/ha), 99%. Besides, the “3DP % Control” value in data set [3] (1.56 g/ha) amounted to 96%; in data set [3] (6.25 g/ha) it was 96%; in data set [3] (25 g/ha) it was 96%; in data set [3] (100 g/ha) it was 100%. Moreover, the “fungicidal activity against the fungi responsible for leaf blotch of wheat (Septoria tritici)” value in data set [3] was “improved fungicidal activity”.
In turn, `N#Cc1ccc(Oc2ccc(C(F)(F)C(O)(Cn3ncnc3S)c3ccc(F)cc3F)nc2)cc1` (stereo not drawn) [Example 2, 4-((6-(2-(2,4-difluorophenyl)-1,1-difluoro-2-hydroxy-3-(5-thioxo-4,5-dihydro-1H-1,2,4-triazol-1-yl)propyl)pyridin-3-yl)oxy)benzonitrile] came in with a chromatographic logD in data set [1] of 2.83. For the same molecule, the “H2O solubility (ppm) (thermodynamic)” value in data set [2] came to 23.04 ppm. In addition, the 3DC % control in data set [3] (6.25 g/ha) came out at 94%; in data set [3] (25 g/ha) it was 99%; in data set [3] (100 g/ha), 100%; in data set [3] (rate g/ha) it was 80%. The “3DP % Control” value in data set [3] (1.56 g/ha) is listed as 94%; in data set [3] (6.25 g/ha), 98%; in data set [3] (25 g/ha), 100%; in data set [3] (100 g/ha), 100%. Moreover, the “fungicidal activity against the fungi responsible for leaf blotch of wheat (Septoria tritici)” value in data set [3] is listed as “improved fungicidal activity”.
In data set [1], `N#Cc1ccc(Oc2ccc(C(F)(F)C(O)(Cn3cnnn3)c3ccc(F)cc3F)nc2)cc1` (stereo not drawn) [Example 5*, 4-(6-(2-(2,4-difluorophenyl)-1,1-difluoro-2-hydroxy-3-(1H-tetrazol-1-yl)propyl)pyridin-3-yloxy)benzonitile, reference compound] showed a chromatographic logD of 3.02. Besides, in data set [2], the “H2O solubility (ppm) (thermodynamic)” value is 28.39 ppm. Also, the 3DC % control is recorded as 34% in data set [3] (6.25 g/ha), 47% in data set [3] (25 g/ha), 58% in data set [3] (100 g/ha) and 22% in data set [3] (rate g/ha). The “3DP % Control” value in data set [3] (1.56 g/ha) came to 22%; in data set [3] (6.25 g/ha) it was 36%; in data set [3] (25 g/ha), 50%; in data set [3] (100 g/ha), 64%.
In data set [1], `OC(Cn1cncn1)(c1ccc(F)cc1F)C(F)(F)c1ccc(OCc2cccc(F)c2F)cn1` (stereo not drawn) [Example 45*, reference compound] yielded a chromatographic logD of 3.32. In addition, the “H2O solubility (ppm) (thermodynamic)” value in data set [2] is on record as 5.15 ppm. The 3DC % control came to 86% in data set [3] (6.25 g/ha), 85% in data set [3] (25 g/ha), 86% in data set [3] (100 g/ha) and 78% in data set [3] (rate g/ha). The “3DP % Control” value in data set [3] (1.56 g/ha) worked out at 58%; in data set [3] (6.25 g/ha), 89%; in data set [3] (25 g/ha) it was 93%; in data set [3] (100 g/ha), 95%.
